Values quoted from earlier work, collected in patent publication US7714131B2, “Process for the stereoselective preparation of (−)-halofenate and derivatives thereof” (Metabolex, Inc., priority 2005, dated 2010).

Molecular target: cytochrome P450 2C9 (Homo sapiens, UniProt P11712)
Details: compared to the (+)-enantiomer of halofenic acid

Sequence of cytochrome P450 2C9 (P11712 whole entry): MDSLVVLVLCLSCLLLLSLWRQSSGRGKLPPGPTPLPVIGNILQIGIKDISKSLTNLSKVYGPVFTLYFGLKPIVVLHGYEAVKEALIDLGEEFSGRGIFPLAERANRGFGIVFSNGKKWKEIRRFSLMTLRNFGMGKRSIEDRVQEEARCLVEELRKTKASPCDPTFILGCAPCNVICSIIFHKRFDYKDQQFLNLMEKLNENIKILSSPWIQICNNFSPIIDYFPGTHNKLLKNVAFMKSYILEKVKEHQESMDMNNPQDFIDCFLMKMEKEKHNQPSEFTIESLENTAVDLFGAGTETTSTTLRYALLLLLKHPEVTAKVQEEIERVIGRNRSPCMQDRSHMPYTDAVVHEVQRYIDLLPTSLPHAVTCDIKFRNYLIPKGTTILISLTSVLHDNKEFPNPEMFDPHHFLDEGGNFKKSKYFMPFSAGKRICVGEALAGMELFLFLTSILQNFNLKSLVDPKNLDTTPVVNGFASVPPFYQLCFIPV

SMILES: O=C(O)C(Oc1cccc(C(F)(F)F)c1)c1ccc(Cl)cc1 (single isomer, unassigned; (-)) [(−)-enantiomer of halofenic acid, (4-chlorophenyl)(3-trifluoromethylphenoxy)acetic acid]
- ability to inhibit cytochrome P450 2C9, relative activity: about twenty-fold less active
